Experimental data as given in publication PMC4770715, “LIM kinase inhibitors disrupt mitotic microtubule organization and impair tumor cell proliferation” (Oncotarget, 2015).

Tests used:
Test in all cases: biochemical
Set-up in all cases: KINOMEscan active-site competition binding, percent of control (100 = no competition)
Details in all cases: competition binding, percent control
EPHB3 = EPHB3 (Homo sapiens, UniProt P54753)
FLT4 = FLT4 (Homo sapiens, UniProt P35916)
CTK = molecular target: T1, CTK (Homo sapiens, UniProt P42679)
T1 construct: gene MATK
T1 sequence (P42679 whole entry): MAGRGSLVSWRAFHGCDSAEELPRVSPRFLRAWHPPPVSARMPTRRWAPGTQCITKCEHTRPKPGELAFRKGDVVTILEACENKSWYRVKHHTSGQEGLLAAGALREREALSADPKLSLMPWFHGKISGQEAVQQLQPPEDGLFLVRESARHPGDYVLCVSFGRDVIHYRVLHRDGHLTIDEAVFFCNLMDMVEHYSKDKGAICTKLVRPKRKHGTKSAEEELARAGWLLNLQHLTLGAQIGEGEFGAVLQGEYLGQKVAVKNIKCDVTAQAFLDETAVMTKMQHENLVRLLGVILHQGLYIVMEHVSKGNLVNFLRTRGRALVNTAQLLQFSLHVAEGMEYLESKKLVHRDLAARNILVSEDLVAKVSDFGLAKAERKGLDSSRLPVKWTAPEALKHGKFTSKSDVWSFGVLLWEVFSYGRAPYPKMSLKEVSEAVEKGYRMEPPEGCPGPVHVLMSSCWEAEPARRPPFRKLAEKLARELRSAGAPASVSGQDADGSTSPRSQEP

[1] = molecular target: T2, RSK1(Kin.Dom.2-C-terminal) (Homo sapiens, UniProt Q15418)
T2 construct: gene RPS6KA1; Kin.Dom.2-C-terminal

SLK = SLK (Homo sapiens, UniProt Q9H2G2)
JNK1 = molecular target: T3, JNK1 (Homo sapiens, UniProt P45983)
T3 construct: gene MAPK8
T3 sequence (P45983 whole entry): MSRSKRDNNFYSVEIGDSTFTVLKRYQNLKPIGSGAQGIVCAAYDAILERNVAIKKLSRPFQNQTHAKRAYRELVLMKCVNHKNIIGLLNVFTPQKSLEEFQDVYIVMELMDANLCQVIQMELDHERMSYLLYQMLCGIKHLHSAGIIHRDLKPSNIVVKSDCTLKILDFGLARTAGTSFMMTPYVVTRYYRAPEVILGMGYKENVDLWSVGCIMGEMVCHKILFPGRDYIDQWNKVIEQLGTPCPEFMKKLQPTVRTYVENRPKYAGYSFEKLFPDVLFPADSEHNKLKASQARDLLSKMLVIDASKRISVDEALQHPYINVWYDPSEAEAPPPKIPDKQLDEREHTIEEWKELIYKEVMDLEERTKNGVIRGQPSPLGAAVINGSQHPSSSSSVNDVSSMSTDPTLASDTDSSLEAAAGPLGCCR

KIT(V559D) = KIT(V559D) (Homo sapiens, UniProt P10721, V559D)
Sequence of KIT(V559D) (P10721 whole entry V559D): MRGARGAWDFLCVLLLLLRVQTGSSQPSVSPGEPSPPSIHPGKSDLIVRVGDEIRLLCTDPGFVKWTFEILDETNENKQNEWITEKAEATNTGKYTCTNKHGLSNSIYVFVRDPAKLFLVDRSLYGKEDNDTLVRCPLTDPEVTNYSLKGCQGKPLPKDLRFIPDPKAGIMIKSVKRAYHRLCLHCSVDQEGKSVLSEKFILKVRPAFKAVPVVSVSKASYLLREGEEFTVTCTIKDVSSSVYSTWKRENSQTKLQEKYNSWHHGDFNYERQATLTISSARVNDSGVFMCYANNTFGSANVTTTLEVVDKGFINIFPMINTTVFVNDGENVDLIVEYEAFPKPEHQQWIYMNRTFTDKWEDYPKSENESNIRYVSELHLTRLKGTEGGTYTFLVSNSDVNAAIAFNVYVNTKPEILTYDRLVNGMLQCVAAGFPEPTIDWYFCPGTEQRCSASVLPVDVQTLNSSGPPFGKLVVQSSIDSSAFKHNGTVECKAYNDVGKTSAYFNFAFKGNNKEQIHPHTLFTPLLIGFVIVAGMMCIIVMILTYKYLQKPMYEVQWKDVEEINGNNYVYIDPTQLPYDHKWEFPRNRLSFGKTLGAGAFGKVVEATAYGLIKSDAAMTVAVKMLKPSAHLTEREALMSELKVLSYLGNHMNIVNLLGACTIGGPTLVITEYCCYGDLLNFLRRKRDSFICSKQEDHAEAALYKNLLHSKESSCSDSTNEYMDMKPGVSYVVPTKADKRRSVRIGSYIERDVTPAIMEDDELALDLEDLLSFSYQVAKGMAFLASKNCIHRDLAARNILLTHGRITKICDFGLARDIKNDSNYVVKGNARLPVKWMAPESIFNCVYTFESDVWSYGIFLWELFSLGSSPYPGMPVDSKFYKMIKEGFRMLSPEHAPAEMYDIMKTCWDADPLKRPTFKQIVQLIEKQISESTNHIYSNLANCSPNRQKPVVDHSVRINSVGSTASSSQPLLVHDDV

MTOR = MTOR (Homo sapiens, UniProt P42345)
MYO3A = MYO3A (Homo sapiens, UniProt Q8NEV4)
Sequence of MYO3A (Q8NEV4 whole entry): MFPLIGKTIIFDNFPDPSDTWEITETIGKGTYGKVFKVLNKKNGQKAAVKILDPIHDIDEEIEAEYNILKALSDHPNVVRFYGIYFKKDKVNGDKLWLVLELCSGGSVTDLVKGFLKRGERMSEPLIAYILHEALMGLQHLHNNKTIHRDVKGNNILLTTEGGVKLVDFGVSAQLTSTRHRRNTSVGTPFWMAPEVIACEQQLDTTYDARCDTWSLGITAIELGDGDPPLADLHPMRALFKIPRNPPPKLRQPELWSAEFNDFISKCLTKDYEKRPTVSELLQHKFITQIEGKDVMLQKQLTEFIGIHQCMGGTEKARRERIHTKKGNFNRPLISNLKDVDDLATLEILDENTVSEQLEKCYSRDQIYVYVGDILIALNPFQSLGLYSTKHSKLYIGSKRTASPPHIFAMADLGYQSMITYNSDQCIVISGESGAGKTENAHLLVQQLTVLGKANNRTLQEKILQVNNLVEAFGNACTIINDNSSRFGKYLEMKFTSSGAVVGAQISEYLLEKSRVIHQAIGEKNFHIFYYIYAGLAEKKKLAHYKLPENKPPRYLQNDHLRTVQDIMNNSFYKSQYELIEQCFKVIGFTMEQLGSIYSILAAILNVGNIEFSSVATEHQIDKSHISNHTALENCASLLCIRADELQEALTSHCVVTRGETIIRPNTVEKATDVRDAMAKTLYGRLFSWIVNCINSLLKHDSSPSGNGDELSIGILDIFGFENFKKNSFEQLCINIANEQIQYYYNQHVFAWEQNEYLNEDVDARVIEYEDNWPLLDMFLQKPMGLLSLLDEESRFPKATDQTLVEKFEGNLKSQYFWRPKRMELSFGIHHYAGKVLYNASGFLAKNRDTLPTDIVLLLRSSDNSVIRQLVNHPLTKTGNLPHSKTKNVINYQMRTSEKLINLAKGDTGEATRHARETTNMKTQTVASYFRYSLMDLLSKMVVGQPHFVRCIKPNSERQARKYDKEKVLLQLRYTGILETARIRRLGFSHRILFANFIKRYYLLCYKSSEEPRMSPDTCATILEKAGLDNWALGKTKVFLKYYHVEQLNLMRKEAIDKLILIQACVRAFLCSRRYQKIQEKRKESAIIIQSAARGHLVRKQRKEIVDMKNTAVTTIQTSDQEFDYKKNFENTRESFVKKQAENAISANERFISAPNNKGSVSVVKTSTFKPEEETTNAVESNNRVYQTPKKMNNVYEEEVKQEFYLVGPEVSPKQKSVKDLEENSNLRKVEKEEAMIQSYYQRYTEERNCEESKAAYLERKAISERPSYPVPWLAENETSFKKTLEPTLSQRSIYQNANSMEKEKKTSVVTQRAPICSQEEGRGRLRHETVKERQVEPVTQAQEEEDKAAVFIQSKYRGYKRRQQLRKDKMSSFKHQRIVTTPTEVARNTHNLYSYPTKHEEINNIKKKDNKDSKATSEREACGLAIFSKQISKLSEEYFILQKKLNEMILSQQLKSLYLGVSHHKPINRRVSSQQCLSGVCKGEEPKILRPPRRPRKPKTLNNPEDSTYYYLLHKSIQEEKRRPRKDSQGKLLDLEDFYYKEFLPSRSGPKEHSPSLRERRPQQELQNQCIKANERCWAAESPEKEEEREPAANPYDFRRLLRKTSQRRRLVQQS

CDK11 = molecular target: T4, CDK11 (Homo sapiens, UniProt Q9BWU1)
T4 construct: gene CDK19

MAK = MAK (Homo sapiens, UniProt P20794)
TNK2 = TNK2 (Homo sapiens, UniProt Q07912)
TAK1 = molecular target: T5, TAK1 (Homo sapiens, UniProt O43318)
T5 construct: gene MAP3K7
T5 sequence (O43318 whole entry): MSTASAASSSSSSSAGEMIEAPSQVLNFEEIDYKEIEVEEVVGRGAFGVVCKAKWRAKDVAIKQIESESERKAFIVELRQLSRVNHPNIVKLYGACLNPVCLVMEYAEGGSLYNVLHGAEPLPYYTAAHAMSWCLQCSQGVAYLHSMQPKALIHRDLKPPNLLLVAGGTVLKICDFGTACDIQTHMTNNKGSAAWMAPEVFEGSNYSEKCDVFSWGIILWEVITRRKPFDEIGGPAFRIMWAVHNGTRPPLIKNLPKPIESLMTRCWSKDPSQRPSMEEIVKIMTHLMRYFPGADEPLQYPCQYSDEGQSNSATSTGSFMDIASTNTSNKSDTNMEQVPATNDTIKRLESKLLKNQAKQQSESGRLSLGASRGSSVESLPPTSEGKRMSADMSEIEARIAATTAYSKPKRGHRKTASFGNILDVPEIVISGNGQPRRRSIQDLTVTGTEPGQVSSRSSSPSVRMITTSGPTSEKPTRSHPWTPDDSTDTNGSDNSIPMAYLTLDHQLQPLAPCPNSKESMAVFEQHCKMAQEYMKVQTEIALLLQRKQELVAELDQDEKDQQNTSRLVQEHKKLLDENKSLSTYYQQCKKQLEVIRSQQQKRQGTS

MLK3 = molecular target: T6, MLK3 (Homo sapiens, UniProt Q16584)
T6 construct: gene MAP3K11

IGF1R = IGF1R (Homo sapiens, UniProt P08069)
ERN1 = ERN1 (Homo sapiens, UniProt O75460)
RIOK3 = RIOK3 (Homo sapiens, UniProt O14730)
Sequence of RIOK3 (O14730 whole entry): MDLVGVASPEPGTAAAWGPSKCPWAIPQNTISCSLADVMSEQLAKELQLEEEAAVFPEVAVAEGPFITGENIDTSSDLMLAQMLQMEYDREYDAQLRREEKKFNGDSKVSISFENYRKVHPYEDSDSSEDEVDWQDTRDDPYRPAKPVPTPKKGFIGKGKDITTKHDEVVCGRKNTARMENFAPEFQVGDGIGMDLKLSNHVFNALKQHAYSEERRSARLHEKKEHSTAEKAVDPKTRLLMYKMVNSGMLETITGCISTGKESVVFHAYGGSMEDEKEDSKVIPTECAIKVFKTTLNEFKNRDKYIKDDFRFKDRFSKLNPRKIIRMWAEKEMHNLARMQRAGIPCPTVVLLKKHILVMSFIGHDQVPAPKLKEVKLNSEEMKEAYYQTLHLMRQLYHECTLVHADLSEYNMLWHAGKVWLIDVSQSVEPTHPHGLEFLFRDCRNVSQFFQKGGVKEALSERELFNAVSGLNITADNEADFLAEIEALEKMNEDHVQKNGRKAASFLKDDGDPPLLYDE

PHKG2 = PHKG2 (Homo sapiens, UniProt P15735)
STK33 = STK33 (Homo sapiens, UniProt Q9BYT3)
AURKA = AURKA (Homo sapiens, UniProt O14965)
Sequence of AURKA (O14965 whole entry): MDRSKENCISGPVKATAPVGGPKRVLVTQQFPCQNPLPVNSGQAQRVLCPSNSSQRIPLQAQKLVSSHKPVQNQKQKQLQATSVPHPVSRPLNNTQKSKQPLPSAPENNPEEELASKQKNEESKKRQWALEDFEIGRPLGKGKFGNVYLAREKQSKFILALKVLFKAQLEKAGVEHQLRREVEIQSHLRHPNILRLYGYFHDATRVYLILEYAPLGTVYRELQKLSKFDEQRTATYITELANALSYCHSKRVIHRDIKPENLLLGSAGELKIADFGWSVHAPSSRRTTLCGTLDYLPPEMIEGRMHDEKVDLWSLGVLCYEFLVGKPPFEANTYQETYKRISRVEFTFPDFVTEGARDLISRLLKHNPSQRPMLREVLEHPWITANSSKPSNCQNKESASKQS

LRRK2 = LRRK2 (Homo sapiens, UniProt Q5S007)
CDK9 = CDK9 (Homo sapiens, UniProt P50750)
SIK2 = SIK2 (Homo sapiens, UniProt Q9H0K1)

Row | SMILES | remaining binding at 10 µM (EPHB3) | remaining binding at 10 µM (FLT4) | remaining binding at 10 µM (CTK) | remaining binding at 10 µM [1] | remaining binding at 10 µM (SLK) | remaining binding at 10 µM (JNK1) | remaining binding at 10 µM (KIT(V559D)) | remaining binding at 10 µM (MTOR) | remaining binding at 10 µM (MYO3A) | remaining binding at 10 µM (CDK11) | remaining binding at 10 µM (MAK) | remaining binding at 10 µM (TNK2) | remaining binding at 10 µM (TAK1) | remaining binding at 10 µM (MLK3) | remaining binding at 10 µM (IGF1R) | remaining binding at 10 µM (ERN1) | remaining binding at 10 µM (RIOK3) | remaining binding at 10 µM (PHKG2) | remaining binding at 10 µM (STK33) | remaining binding at 10 µM (AURKA) | also measured
1 | COc1ccc(-c2cnccc2-c2cnc(NC(=O)C(C)C)s2)c(C(F)(F)F)c1 [CRT0105446, N-{5-[3-(4-Methoxy-2-trifluoromethyl-phenyl)-pyridin-4-yl]-hiazol-2-yl}-isobutyramide] | 83% | 61% | 100% | 43% | 100% | 34% | 39% | 64% | 100% | 34% | 0.6% | 91% | 79% | 100% | 100% | 87% | 94% | 92% | 100% | 100% | remaining binding at 10 µM (LRRK2): 91%; remaining binding at 10 µM (CDK9): 28%; remaining binding at 10 µM (SIK2): 78%
2 | Cc1ccc(-c2cnccc2-c2cnc(Nc3ccc(O)cc3)s2)c(Cl)c1 [CRT0105950, 4-{5-[3-(2-Chloro-4-methyl-phenyl)-pyridin-4-yl]-thiazol-2-ylamino}-phenol] | 96% | 26% | 100% | 27% | 95% | 40% | 0.75% | 35% | 65% | 2.3% | 2% | 25% | 33% | 43% | 3.6% | 68% | 66% | 52% | 100% | 18% | remaining binding at 10 µM (LRRK2): 54%; remaining binding at 10 µM (CDK9): 65%; remaining binding at 10 µM (SIK2): 7.1%
